Data reported in patent US20210113501A1, “METHOD OF ADMINISTERING BETA-HYDROXY-BETA-METHYLBUTYRATE (HMB)” (Metabolic Technologies, Inc., priority 2009, published 2021).

Assay: Study 1 blood chemistry
Assay type: in vivo, human
Details: for Gamma-glutamyl: in U/L (unit assumed)
Experimental: Study 1 design. For study 1 the subjects reported to the laboratory in the morning following an overnight fast. Before ingestion of one of the supplemental treatments, a flexible sterile polyethylene catheter was inserted into a forearm vein using sterile procedures and a pre-ingestion blood sample was drawn. Subsequent blood samples were taken at 0, 2, 5, 10, 15, 25, 35, 45, 60, 90, 120 and 180 min after ingestion of the treatment. Plasma was separated and samples were stored frozen at −70° C. for analysis of HMB concentration. In addition, a portion of the pre-ingestion and 180 minute blood samples were used for measurements (LabCorp, Kansas City, Mo.) of glucose, uric acid, blood urea nitrogen (BUN), creatinine, sodium, potassium, chloride, carbon dioxide, phosphorous, protein, albumin, globulin, albumin:globulin ratio, total bilirubin, direct bilirubin, alkaline phosphatase, lactate dehydrogenase, aspartate aminotransferase (AST), alanine aminotransferase (ALT), gamma-glutamyl transpeptidase (GGT), iron binding capacity (TIBC), unsaturated iron binding capacity (UIBC), iron, iron saturation, total cholesterol, triglycerides, high density lipoprotein (HDL), low density lipoprotein (LDL), and cholesterol ratio. A complete blood count (CBC) was also performed before and after the 180 min treatment period. Subjects also completed a brief questionnaire to report any physical symptoms (such as nausea, headache, etc) they may have experienced during the experiment.
The data were analyzed using a crossover design with Proc GLM in SAS. (45) For the timed sampling of plasma HMB a repeated measures polynomial model was used. The model included subject, order, and treatment main effects and time by treatment interaction where appropriate. For other parameters Proc GLM was also used with subject, order, and treatment main effects and the p values are reported for the treatment main effect. Statistical significance was determined for p<0.05 and a trend was determined for 0.05<p<0.10.

[1] = After (180 min), listed as Free Acid Gel Sublingual
[2] = Before to After, listed as Free Acid Gel Sublingual
[3] = Before, listed as Free Acid Gel Sublingual

CC(C)(O)CC(=O)O [HMB-Acid Gel Sublingual, 3-hydroxy-3-methylbutyric acid]
Albumin (After (180 min)): 4.1 ± 0.2 g/dL | Direct Bilirubin (After (180 min)): 0.1 ± 0.01 mg/dL | Iron Saturation (After (180 min)): 30.9 ± 8.5% | A:G Ratio [1]: 1.8 ± 0.1 | Alanine Aminotransferase [1]: 17.3 ± 2.7 IU/L | Alkaline Phosphatase [1]: 66.8 ± 6.8 IU/L | Aspartate Aminotransferase [1]: 28.3 ± 8.2 IU/L | Blood Urea Nitrogen [1]: 12.9 ± 0.8 mg/dL | CO2 [1]: 24.3 ± 0.6 mEq/L | Chloride [1]: 102.4 ± 1.1 mEq/L | Cholesterol Ratio [1]: 3.3 ± 0.2 | Creatinine [1]: 1.0 ± 0.04 mg/dL | Globulin [1]: 2.3 ± 0.1 g/dL | Glucose [1]: 77.4 ± 2.5 mg/dL | HDL [1]: 49.3 ± 4.3 mg/dL | Iron [1]: 94.6 ± 16.6 µg/dL | Iron Binding Capacity [1]: 339.5 ± 30.8 µg/dL | LDL [1]: 89.4 ± 4.9 mg/dL | Lactate Dehydrogenase [1]: 167.3 ± 12.2 IU/L | Phosphorus [1]: 3.5 ± 0.2 mg/dL | Potassium [1]: 4.5 ± 0.1 mEq/L | Protein [1]: 6.4 ± 0.2 g/dL | Sodium [1]: 137.8 ± 0.9 mEq/L | Total Bilirubin [1]: 0.5 ± 0.05 mg/dL | Total Cholesterol [1]: 155.5 ± 5.8 mg/dL | Triglycerides [1]: 83.8 ± 15.8 mg/dL | UIBC [1]: 244.9 ± 39.5 µg/dL | Uric Acid [1]: 4.0 ± 0.5 mg/dL | Gamma-glutamyl [1]: 13.4 ± 1.2 | A:G Ratio (Before): 1.9 ± 0.1 | Creatinine (Before): 1.0 ± 0.1 mg/dL | Direct Bilirubin (Before): 0.1 ± 0.01 mg/dL | Total Bilirubin (Before): 0.4 ± 0.05 mg/dL | A:G Ratio % Change [2]: −2.0% | Alanine Aminotransferase % Change [2]: −0.7% | Albumin % Change [2]: 1.5% | Alkaline Phosphatase % Change [2]: 1.1% | Aspartate Aminotransferase % Change [2]: 0.9% | Blood Urea Nitrogen % Change [2]: −10.4% | CO2 % Change [2]: 1.0% | Chloride % Change [2]: −0.5% | Cholesterol Ratio % Change [2]: −0.4% | Creatinine % Change [2]: −1.5% | Direct Bilirubin % Change [2]: 8.6% | Gamma-glutamyl % Change [2]: 0.9% | Globulin % Change [2]: 1.6% | Glucose % Change [2]: 4.4% | HDL % Change [2]: 1.3% | Iron % Change [2]: 13.7% | Iron Binding Capacity % Change [2]: 3.5% | Iron Saturation % Change [2]: 6.0% | LDL % Change [2]: 2.1% | Lactate Dehydrogenase % Change [2]: 1.5% | Phosphorus % Change [2]: −13.2% | Potassium % Change [2]: 10.6% | Protein % Change [2]: 1.6% | Sodium % Change [2]: −1.1% | Total Bilirubin % Change [2]: 22.6% | Total Cholesterol % Change [2]: 0.7% | Triglycerides % Change [2]: −8.7% | UIBC % Change [2]: 0.1% | Uric Acid % Change [2]: −2.2% | Alanine Aminotransferase [3]: 17.4 ± 2.7 IU/L | Albumin [3]: 4.1 ± 0.1 g/dL | Alkaline Phosphatase [3]: 66.0 ± 6.3 IU/L | Aspartate Aminotransferase [3]: 28.0 ± 7.9 IU/L | Blood Urea Nitrogen [3]: 14.4 ± 0.8 mg/dL | CO2 [3]: 24.0 ± 0.5 mEq/L | Chloride [3]: 102.9 ± 0.6 mEq/L | Cholesterol Ratio [3]: 3.3 ± 0.2 | Globulin [3]: 2.3 ± 0.2 g/dL | Glucose [3]: 74.1 ± 1.7 mg/dL | HDL [3]: 48.6 ± 4.6 mg/dL | Iron [3]: 83.3 ± 16.4 µg/dL | Iron Binding Capacity [3]: 328.0 ± 32.8 µg/dL | Iron Saturation [3]: 29.1 ± 9.0% | LDL [3]: 87.5 ± 5.7 mg/dL | Lactate Dehydrogenase [3]: 164.8 ± 12.5 IU/L | Phosphorus [3]: 4.1 ± 0.05 mg/dL | Potassium [3]: 4.0 ± 0.03 mEq/L | Protein [3]: 6.3 ± 0.2 g/dL | Sodium [3]: 139.3 ± 0.8 mEq/L | Total Cholesterol [3]: 154.4 ± 6.9 mg/dL | Triglycerides [3]: 91.8 ± 16.1 mg/dL | UIBC [3]: 244.8 ± 42.3 µg/dL | Uric Acid [3]: 4.0 ± 0.4 mg/dL | Gamma-glutamyl [3]: 13.3 ± 1.2
